Test results: article PMC4931907 (eLife, 2016)

Assays:
p300 = biological target: T1, p300 (Homo sapiens, UniProt Q09472); assay: In vitro HAT assay with recombinant p300, histones and 14C acetyl-CoA; assay type: biochemical; conditions: for IC50: in vitro HAT assay, recombinant p300 and histones, read-out: IC50, p300 acetyltransferase activity
T1 construct: in vitro acetylation assays with purified histones and a recombinant p300 catalytic domain; purchased Enzo Life Sciences
T1 sequence (Q09472 1287-1663 limits assumed): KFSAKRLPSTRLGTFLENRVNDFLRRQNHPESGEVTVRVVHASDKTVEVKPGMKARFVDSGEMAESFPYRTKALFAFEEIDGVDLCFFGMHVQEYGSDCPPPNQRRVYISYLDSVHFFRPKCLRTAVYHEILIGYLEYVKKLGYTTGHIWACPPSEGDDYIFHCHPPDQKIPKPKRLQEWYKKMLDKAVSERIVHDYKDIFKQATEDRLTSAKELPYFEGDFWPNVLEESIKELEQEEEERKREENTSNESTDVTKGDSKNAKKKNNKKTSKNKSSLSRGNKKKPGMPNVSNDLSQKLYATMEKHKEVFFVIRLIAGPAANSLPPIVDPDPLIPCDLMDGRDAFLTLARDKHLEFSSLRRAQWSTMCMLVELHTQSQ
Protocol: (§1) To determine whether salicylate inhibits p300 and other acetyltransferases, we used in vitro acetylation assays with purified histones and a recombinant p300 catalytic domain.
Figure 1. Salicylate inhibits CBP/p300 in vitro. (A) Recombinant p300, CBP, GCN5, or PCAF and histones were incubated with ^14C-labeled acetyl-CoA with or without sodium salicylate, separated by SDS-PAGE, analyzed by autoradiography, and quantified with Image J software. Acetylation levels are relative to those in untreated controls. (B) Thermal stability assay for sodium salicylate binding to the p300 HAT domain. Tm, melting temperature. (C) and (D) Lineweaver-Burk plots showing kinetic analysis of p300 acetyltransferase inhibition by sodium salicylate. Histone acetylation was measured with several concentrations of acetyl-CoA (C) or histone (D) in the presence or absence of sodium salicylate. DOI: http://dx.doi.org/10.7554/eLife.11156.003 Figure 1—figure supplement 1. […] (A) Dose-response data for inhibition of p300 by salicylate and salicyl-CoA. Acetylation of an H4(3–14) peptide was monitored using direct microfluidic mobility shift analysis as previously described ([Montgomery et al., 2014]; [Fanslau et al., 2010]). Error is given as the 95% confidence interval. […] Error is given as the 95% confidence interval. DOI: http://dx.doi.org/10.7554/eLife.11156.004 [drawing 1] TEXT PRINTED IN THE PICTURE: (A) Salicylate: p300 IC50 (mM): 6.12; Confidence Interval [CI95] (mM): 5.2–7.2 | (A) Salicyl-CoA: p300 IC50 (mM): […]; Confidence Interval [CI95] […] (mM): 0.78–1.4 | (B) Diflunisal-CoA: p300 IC50 (mM): 0.02; Confidence Interval [CI95] (mM): 0.02–0.03
Recombinant HAT ([…]), either p300, CBP, PCAF, or GCN5 (Enzo Life Sciences), and 10 µg of histones (Sigma) were incubated with sodium salicylate (Sigma) in reaction buffer (50 mM HEPES, pH 8.0, 10% glycerol, 1 mM) at 30°C for 30 min and then with 0.1 mCi of ^14C acetyl-CoA at 30°C for 60 min. Reactions were stopped by adding 6x sample buffer and analyzed by SDS-PAGE. The gels were dried, and signals were obtained by autoradiography and quantified with Image J software. To quantify acetylated histone levels, we generated a standard curve from signals of lanes loaded with […] of ^14C labeled histones.

Kasumi-1 cells = assay: Kasumi-1 xenograft model in SCID mice; assay type: in vivo
Protocol: Figure 5. […] (A) and (B) Plots of tumor volume (A) and body weight (B). (C) and (D) Tumor size (C) and body weight (D) at sacrifice after 3 weeks of treatment. DOI: http://dx.doi.org/10.7554/eLife.11156.012
Severe combined immunodeficiency (SCID) mice were injected with 30 million Kasumi-1 cells in 100 μl of PBS and 100 μl of Matrigel. […] Tumor volume and body weight were recorded every 2 days. After 3 weeks of treatment, the mice were killed and tumor size and body weight were recorded. All mice were maintained according to National Institutes of Health guidelines and all animal use protocols were approved by the Institutional Animal Care and Use Committee.

CBP = biological target: T2, CBP (Homo sapiens, UniProt Q92793); assay: In vitro HAT assay with recombinant CBP, histones and 14C acetyl-CoA; assay type: biochemical; conditions: read-out: IC50, CBP-mediated acetyltransferase activity
T2 construct: purchased Enzo Life Sciences
Protocol: as §1
(§2) Figure 1. Salicylate inhibits CBP/p300 in vitro. (A) Recombinant p300, CBP, GCN5, or PCAF and histones were incubated with ^14C-labeled acetyl-CoA with or without sodium salicylate, separated by SDS-PAGE, analyzed by autoradiography, and quantified with Image J software. Acetylation levels are relative to those in untreated controls. (B) Thermal stability assay for sodium salicylate binding to the p300 HAT domain. Tm, melting temperature. […] Histone acetylation was measured with several concentrations of acetyl-CoA (C) or histone (D) in the presence or absence of sodium salicylate. […] Acetylation of an H4(3–14) peptide was monitored using direct microfluidic mobility shift analysis as previously described ([Montgomery et al., 2014]; [Fanslau et al., 2010]). […]
(§3) Recombinant HAT ([…]), either p300, CBP, PCAF, or GCN5 (Enzo Life Sciences), and 10 µg of histones (Sigma) were incubated with sodium salicylate (Sigma) in reaction buffer (50 mM HEPES, pH 8.0, 10% glycerol, 1 mM) at 30°C for 30 min and then with 0.1 mCi of ^14C acetyl-CoA at 30°C for 60 min. Reactions were stopped by adding 6x sample buffer and analyzed by SDS-PAGE. […]

PCAF = biological target: T3, PCAF (Homo sapiens, UniProt Q92831); assay: In vitro HAT assay with recombinant PCAF, histones and 14C acetyl-CoA; assay type: biochemical
T3 construct: purchased Enzo Life Sciences
Protocol: as §1, §2, §3

GCN5 = biological target: T4, GCN5 (Homo sapiens, UniProt Q92830); assay: In vitro HAT assay with recombinant GCN5, histones and 14C acetyl-CoA; assay type: biochemical
T4 construct: purchased Enzo Life Sciences
Protocol: as §1, §2, §3

acetyl NF-κBK310 = assay: Acetylation of overexpressed NF-κB p65 in HEK293T cells, Western blot; assay type: cell-based; conditions: HEK293T transfected with p300 and NF-κB p65, 24 hr
Text: Figure 2.

[1] = 50 or 100 mg/kg orally, daily, 3 weeks

T2 sequence (Q92793 whole entry): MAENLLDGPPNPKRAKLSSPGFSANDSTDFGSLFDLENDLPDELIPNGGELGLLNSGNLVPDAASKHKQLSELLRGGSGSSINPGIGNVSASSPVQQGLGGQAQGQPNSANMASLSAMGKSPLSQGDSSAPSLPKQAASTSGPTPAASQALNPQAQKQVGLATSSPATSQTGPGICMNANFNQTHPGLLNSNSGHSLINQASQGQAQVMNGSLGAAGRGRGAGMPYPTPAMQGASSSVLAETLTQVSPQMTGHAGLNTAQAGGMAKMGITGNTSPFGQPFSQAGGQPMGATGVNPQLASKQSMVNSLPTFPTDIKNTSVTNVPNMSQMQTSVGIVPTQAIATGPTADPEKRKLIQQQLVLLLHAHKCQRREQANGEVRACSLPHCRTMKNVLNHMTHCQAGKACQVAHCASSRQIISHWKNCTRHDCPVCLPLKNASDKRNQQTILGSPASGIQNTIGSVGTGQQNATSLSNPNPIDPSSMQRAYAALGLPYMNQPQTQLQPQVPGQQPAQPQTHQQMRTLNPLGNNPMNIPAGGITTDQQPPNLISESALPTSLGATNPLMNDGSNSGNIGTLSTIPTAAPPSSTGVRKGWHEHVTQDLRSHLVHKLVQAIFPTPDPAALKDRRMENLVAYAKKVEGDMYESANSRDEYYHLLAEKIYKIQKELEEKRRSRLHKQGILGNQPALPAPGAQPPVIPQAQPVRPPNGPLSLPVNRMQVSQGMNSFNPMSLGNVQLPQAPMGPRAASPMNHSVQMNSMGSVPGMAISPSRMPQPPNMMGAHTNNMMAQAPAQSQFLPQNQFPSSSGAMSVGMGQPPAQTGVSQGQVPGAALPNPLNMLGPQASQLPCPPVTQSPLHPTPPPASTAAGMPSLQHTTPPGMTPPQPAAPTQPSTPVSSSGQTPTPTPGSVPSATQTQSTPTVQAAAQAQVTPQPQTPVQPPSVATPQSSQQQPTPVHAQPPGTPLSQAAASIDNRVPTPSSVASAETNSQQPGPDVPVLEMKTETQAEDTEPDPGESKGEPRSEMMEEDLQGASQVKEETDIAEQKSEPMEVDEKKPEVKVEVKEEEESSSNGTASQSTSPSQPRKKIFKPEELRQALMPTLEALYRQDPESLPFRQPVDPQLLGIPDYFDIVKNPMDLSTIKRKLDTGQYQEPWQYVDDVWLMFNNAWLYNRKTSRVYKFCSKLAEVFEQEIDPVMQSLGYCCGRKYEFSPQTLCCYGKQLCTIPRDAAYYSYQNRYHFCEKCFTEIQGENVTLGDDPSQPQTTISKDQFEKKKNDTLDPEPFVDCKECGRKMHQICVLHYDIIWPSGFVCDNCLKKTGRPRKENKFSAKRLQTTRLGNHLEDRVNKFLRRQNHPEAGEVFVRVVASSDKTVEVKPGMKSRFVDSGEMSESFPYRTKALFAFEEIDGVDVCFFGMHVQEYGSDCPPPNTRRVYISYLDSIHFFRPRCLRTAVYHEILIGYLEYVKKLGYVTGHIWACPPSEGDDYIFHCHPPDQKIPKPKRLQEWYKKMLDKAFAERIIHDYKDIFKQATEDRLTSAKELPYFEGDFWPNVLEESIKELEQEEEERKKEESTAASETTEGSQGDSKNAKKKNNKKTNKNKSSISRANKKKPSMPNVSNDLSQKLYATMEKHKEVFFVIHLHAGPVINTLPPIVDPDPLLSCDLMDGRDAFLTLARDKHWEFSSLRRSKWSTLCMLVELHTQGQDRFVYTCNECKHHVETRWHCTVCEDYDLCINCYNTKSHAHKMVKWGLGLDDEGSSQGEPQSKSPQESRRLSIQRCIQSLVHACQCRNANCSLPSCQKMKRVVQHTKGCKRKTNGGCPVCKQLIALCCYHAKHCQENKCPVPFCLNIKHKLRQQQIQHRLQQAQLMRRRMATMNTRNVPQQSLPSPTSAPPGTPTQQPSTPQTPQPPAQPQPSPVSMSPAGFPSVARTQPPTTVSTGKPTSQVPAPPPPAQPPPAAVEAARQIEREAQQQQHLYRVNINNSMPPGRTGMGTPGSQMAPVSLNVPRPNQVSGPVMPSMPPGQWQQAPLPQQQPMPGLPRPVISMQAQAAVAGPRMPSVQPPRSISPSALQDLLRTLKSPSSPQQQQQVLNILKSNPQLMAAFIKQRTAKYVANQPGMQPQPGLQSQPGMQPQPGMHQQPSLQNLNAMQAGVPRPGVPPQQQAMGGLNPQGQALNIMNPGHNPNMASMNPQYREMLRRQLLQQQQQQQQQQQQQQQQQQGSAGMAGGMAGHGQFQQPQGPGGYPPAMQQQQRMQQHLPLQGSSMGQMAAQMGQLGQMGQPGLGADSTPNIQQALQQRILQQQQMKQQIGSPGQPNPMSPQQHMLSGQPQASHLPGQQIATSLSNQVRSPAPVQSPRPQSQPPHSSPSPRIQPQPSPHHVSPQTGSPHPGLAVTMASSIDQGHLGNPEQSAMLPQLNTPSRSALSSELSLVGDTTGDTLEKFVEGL
T3 sequence (Q92831 whole entry, species assumed): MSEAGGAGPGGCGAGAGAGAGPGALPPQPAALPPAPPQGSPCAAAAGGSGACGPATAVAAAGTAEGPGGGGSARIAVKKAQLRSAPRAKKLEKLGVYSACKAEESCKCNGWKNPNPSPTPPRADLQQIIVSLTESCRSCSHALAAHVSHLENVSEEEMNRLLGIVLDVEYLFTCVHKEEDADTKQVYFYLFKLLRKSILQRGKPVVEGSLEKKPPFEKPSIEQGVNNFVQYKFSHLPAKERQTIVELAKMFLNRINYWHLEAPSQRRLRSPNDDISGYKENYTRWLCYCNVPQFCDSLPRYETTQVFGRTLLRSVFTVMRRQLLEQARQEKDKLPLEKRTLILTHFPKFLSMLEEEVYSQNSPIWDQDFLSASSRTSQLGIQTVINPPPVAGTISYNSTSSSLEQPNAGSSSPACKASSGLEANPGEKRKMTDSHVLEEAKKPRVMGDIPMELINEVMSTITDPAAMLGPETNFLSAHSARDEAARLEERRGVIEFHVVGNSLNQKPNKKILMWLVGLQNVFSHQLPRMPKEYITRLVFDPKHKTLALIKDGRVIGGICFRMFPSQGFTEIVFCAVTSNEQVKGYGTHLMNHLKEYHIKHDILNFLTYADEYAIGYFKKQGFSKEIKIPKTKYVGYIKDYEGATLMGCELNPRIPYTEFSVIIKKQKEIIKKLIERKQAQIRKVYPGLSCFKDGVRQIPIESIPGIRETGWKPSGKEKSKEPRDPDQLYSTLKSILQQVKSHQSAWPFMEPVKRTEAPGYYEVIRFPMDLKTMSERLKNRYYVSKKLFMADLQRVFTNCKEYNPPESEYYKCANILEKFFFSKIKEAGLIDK
T4 sequence (Q92830 whole entry, species assumed): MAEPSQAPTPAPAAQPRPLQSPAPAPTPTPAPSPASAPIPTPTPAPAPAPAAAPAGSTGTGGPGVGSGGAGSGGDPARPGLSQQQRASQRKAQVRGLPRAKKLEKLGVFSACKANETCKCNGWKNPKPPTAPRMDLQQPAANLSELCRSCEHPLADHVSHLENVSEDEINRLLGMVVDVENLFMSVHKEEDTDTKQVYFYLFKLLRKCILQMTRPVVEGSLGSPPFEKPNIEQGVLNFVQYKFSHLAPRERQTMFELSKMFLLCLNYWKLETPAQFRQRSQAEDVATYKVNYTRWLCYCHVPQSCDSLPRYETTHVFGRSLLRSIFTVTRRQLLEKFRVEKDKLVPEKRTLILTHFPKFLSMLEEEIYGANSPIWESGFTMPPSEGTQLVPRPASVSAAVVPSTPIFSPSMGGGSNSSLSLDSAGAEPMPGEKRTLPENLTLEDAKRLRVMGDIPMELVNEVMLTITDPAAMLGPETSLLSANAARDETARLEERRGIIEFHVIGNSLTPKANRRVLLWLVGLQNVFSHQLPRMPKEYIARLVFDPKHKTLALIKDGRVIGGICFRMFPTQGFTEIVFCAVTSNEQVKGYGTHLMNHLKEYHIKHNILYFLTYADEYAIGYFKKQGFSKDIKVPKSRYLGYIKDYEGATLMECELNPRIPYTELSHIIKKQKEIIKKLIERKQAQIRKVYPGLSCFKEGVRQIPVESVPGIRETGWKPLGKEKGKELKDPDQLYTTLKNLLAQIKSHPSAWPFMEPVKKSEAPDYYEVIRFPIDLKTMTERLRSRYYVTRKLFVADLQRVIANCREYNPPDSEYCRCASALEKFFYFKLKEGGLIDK

Structure (SMILES): O=C(O)c1cc(-c2ccc(F)cc2F)ccc1O [diflunisal]
- IC50 (p300): 0.996 mM
- Effect on body weight (Kasumi-1 cells; [1]): minimal effects on body weight
- Tumor volume (Kasumi-1 cells; [1]): reduced tumor volumes in a dose-dependent manner
- Tumor size versus vehicle-treated controls (Kasumi-1 cells; after 3 weeks of treatment): significantly smaller
- Tumors at sacrifice (Kasumi-1 cells; higher dose (100 mg/kg), after 3 weeks of treatment): most of the tumors had disappeared

Structure (SMILES): O=C(O)c1ccccc1O [salicylate, salicylic acid]
- Mode of p300 inhibition against acetyl-CoA (p300; Lineweaver-Burk, various concentrations of acetyl-CoA): direct competitive p300 inhibition against acetyl-CoA
- Mode of p300 inhibition against histones (p300; Lineweaver-Burk, various concentrations of histone): noncompetitive inhibition against histones
- IC50 (p300): 10.2 mM
- IC50 (CBP): 5.7 mM
- Inhibition of PCAF acetyltransferase (PCAF): did not detectably inhibit
- Inhibition of GCN5 acetyltransferase (GCN5): did not detectably inhibit
- Acetylation of NF-κB p65 K310 (acetyl NF-κBK310): decreased acetylation
